Where a name gives a salt, the structure may show the parent alone.
Key:
[1] = target: TNF-α converting enzyme (TACE) (Homo sapiens, UniProt P78536); assay: Test procedure for measuring TACE inhibition (fluorescent peptidyl substrate); format: biochemical
Description: Using 96-well black microtiter plates, each well receives a solution composed of 10 μL TACE (final concentration 1 μg/mL), 70 μL Tris buffer, pH 7.4 containing 10% glycerol (final concentration 10 mM), and 10 μL of test compound solution in DMSO (final concentration 1 μM, DMSO concentration <1%) and incubated for 10 minutes at room temperature. The reaction is initiated by addition of a fluorescent peptidyl substrate (final concentration 100 μM to each well and then shaking on a shaker for 5 sec.
The reaction is read (excitation 340 nm, emission 420 nm) for 10 min. and the increase in fluorescence over time is plotted as a linear line. The slope of the line is calculated and represents the reaction rate.
The mean (x±sem) of the control rate is calculated and compared for statistical significance (p<0.05) with drug-treated rates using Dunnett's multiple comparison test.

[2] = system: THP-1 cells; assay: Human monocytic THP-1 cell differentiation assay for soluble proteins (THP-1 soluble protein assay); format: cell-based; details: LPS-stimulated THP-1 cells, soluble protein not given
Description: Mitogenic stimulation of THP-1 cells cause differentiation into macrophage like cells with concomitant secretion of tumor necrosis factor (TNF-α) and TNF receptor (TNF-R p75/80 and TNF-R p55160) and Interleukin-8 (IL-8), among other proteins. In addition, non-stimulated THP-1 cells shed both the p75/80 and the p55/60 receptors over time. The release of membrane bound TNF-α and possibly TNF-R p75/80 and TNF-R p55/60, but not IL-8, is mediated by an enzyme called TNF-α converting enzyme or TACE.
THP-1 cells (from ATCC) are a human monocytic cell line which were obtained from the peripheral blood of a person with acute monocytic leukemia. They can be grown in culture and differentiated into macrophage like cells by stimulation with mitogens.
Each vial of cells are cultured for about two weeks prior to being used for an assay and then are used for only 4 to 6 weeks to screen compounds.
Cell exposure to DMSO was limited to 0.1% final concentration. […] Compounds can be evaluated for their effect on basal (non-stimulated) shedding of the receptors by replacing the LPS with […] of THP-1 media.
Plates are placed into an incubator set at 5% CO2 and at 37° C. After 4 hours of incubation, […] of tissue culture supernatant (TCS) is removed for use in an TNF-α ELISA. Following 24 hours of incubation, […] of TCS is removed and used for analysis in TNF-R p75/80, TNF-R p55160 and IL-8 ELISAs.
In addition, at the 24 hours timepoint, and the cells for each treatment group are collected by resuspension in 500 μl/well of THP-1 media and transferred into a FACS tube. […] The samples are run on a Becton Dickinson FaxCaliber FLOW cytometry machine and the amount of dye taken up by each cell is measured in the high red wavelength (FL3). Only cells with compromised membranes (dead or dying) can take up PI. The percent of live cells is calculated by the number of cells not stained with PI, divided by the total number of cells in the sample. The viability values calculated for the drug treated groups were compared to the viability value calculated for the vehicle treated mitogen stimulated group (“vehicle positive control”) to determine the “percent change from control”. This “percent change from control” value is an indicator of drug toxicity.
The quantity of soluble TNF-α, TNF-R p75/80 and TNF-R p55160 and IL-8 in the TCS of the THP-1 cell cultures are obtained with commercially available ELISAs from R&D Systems, by extrapolation from a standard curve generated with kit standards. The number of cells that either take up or exclude PI are measured by the FLOW cytometry machine and visualized by histograms using commercially available Cytologic software for each treatment group including all controls.
Biological variability in the magnitude of the response of THP-1 cell cultures requires that experiments be compared on the basis of percent change from “vehicle positive control” for each drug concentration. Percent change in each soluble protein evaluated from the “vehicle positive control” was calculated for each compound concentration with the following formula: [formula]
For the soluble protein (TNF-α, p75/80, p55/60, IL-8) studies under stimulated conditions, the mean pg/ml of duplicate wells were determined and the results expressed as percent change from “vehicle positive control”. For the soluble protein (p75/80 and p55/60 receptors) studies under non-stimulated conditions, the mean pg/ml of duplicate wells were determined and the results expressed as percent change from “vehicle positive control” utilizing the following formula: [formula]
IC50 values for each compound are calculated by non-linear regression analysis using customized software utilizing the JUMP statistical package.
For the cell viability studies, the viabilities (PI exclusion) of pooled duplicate wells were determined and the results expressed as % change from “vehicle positive control”.

[3] = target: MMP-9 (Homo sapiens, UniProt P14780); assay: MMP-9 inhibition (thiopeptide or fluorescent peptide substrate); format: biochemical; details: for IC50: read-out: MMP9 IC50
Description: (§1) These standard pharmacological test procedures are based on the cleavage of a thiopeptide substrates such as Ac-Pro-Leu-Gly(2-mercapto-4-methyl-pentanoyl)-Leu-Gly-OEt by the matrix metalloproteinases MMP-1, MMP-13 (collagenases) or MMP-9 (gelatinase), which results in the release of a substrate product that reacts colorimetrically with DTNB (5,5′-dithiobis(2-nitro-benzoic acid)). The enzyme activity is measured by the rate of the color increase. The thiopeptide substrate is made up fresh as a 20 mM stock in 100% DMSO and the DTNB is dissolved in 100% DMSO as a 100 mM stock and stored in the dark at room temperature. Both the substrate and DTNB are diluted together to 1 mM with substrate buffer (50 mM HEPES pH 7.5, 5 mM CaCl2) before use. The stock of enzyme is diluted with buffer (50 mM HEPES, pH 7.5, 5 mM CaCl2, 0.02% Brij) to the desired final concentration. The buffer, enzyme, vehicle or inhibitor, and DTNB/substrate are added in this order to a 96 well plate (total reaction volume of 200 μl) and the increase in color is monitored spectrophotometrically for 5 minutes at 405 nm on a plate reader and the increase in color over time is plotted as a linear line.
(§2) Alternatively, a fluorescent peptide substrate is used. In this test procedure, the peptide substrate contains a fluorescent group and a quenching group. Upon cleavage of the substrate by an MMP, the fluorescence that is generated is quantitated on the fluorescence plate reader. The assay is run in HCBC assay buffer (50 mM HEPES, pH 7.0, 5 mM Ca^+2, 0.02% Brij, 0.5% Cysteine), with human recombinant MMP-1, MMP-9, or MMP-13. The substrate is dissolved in methanol and stored frozen in 1 mM aliquots. For the assay, substrate and enzymes are diluted in HCBC buffer to the desired concentrations. Compounds are added to the 96 well plate containing enzyme and the reaction is started by the addition of substrate. The reaction is read (excitation 340 nm, emission 444 nm) for 10 min. and the increase in fluorescence over time is plotted as a linear line.
(§3) For either the thiopeptide or fluorescent peptide test procedures, the slope of the line is calculated and represents the reaction rate. The linearity of the reaction rate is confirmed (r^2>0.85). The mean (x±sem) of the control rate is calculated and compared for statistical significance (p<0.05) with drug-treated rates using Dunnett's multiple comparison test. Dose-response relationships can be generated using multiple doses of drug and IC50 values with 95% CI are estimated using linear regression.

[4] = target: MMP-13 (Homo sapiens, UniProt P45452); assay: MMP-13 inhibition (thiopeptide or fluorescent peptide substrate); format: biochemical; details: for IC50: read-out: MMP13 IC50
Description: The enzyme activity is measured by the rate of the color increase. The thiopeptide substrate is made up fresh as a 20 mM stock in 100% DMSO and the DTNB is dissolved in 100% DMSO as a 100 mM stock and stored in the dark at room temperature. Both the substrate and DTNB are diluted together to 1 mM with substrate buffer (50 mM HEPES pH 7.5, 5 mM CaCl2) before use. The stock of enzyme is diluted with buffer (50 mM HEPES, pH 7.5, 5 mM CaCl2, 0.02% Brij) to the desired final concentration.
as §2, with “substrate.” for “substrate. The reaction is read (excitation 340 nm, emission 444 nm) for 10 min. and the increase in fluorescence over time is plotted as a linear line.”
For either the thiopeptide or fluorescent peptide test procedures, the slope of the line is calculated and represents the reaction rate. […] The mean (x±sem) of the control rate is calculated and compared for statistical significance (p<0.05) with drug-treated rates using Dunnett's multiple comparison test.

[5] = target: T1, MMP-1 (Homo sapiens, UniProt P03956); assay: MMP-1 inhibition (thiopeptide or fluorescent peptide substrate); format: biochemical; details: for IC50: read-out: MMP1 IC50
T1 sequence (P03956 100-469): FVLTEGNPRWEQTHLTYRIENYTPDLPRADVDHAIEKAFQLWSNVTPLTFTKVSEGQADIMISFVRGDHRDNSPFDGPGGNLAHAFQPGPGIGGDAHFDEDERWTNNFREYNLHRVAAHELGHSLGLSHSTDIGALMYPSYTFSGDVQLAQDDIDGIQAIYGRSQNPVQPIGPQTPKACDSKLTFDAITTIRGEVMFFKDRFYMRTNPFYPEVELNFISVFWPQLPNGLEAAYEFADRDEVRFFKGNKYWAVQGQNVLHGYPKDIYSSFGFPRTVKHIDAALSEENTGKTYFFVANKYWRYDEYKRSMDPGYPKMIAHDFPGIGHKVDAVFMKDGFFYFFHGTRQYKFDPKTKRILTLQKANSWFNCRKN
Description: as §1, §2, §3

Chain of MMP-9 (P14780 94-707): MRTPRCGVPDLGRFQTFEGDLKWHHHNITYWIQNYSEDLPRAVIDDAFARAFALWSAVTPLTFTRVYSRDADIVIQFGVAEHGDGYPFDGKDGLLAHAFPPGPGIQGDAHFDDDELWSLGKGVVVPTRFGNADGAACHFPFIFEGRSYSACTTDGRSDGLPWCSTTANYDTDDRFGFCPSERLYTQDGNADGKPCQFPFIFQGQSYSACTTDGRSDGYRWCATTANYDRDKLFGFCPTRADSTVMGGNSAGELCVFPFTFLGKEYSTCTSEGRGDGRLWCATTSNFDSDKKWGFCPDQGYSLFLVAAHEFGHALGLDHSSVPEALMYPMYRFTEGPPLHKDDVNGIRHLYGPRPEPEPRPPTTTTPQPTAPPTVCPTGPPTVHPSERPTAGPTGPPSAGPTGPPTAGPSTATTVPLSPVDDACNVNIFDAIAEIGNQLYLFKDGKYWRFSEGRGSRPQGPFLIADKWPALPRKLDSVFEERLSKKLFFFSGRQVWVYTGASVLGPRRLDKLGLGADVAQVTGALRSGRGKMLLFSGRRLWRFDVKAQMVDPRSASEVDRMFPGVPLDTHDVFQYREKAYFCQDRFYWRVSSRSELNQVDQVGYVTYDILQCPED
Chain of TNF-α converting enzyme (TACE) (P78536 215-824): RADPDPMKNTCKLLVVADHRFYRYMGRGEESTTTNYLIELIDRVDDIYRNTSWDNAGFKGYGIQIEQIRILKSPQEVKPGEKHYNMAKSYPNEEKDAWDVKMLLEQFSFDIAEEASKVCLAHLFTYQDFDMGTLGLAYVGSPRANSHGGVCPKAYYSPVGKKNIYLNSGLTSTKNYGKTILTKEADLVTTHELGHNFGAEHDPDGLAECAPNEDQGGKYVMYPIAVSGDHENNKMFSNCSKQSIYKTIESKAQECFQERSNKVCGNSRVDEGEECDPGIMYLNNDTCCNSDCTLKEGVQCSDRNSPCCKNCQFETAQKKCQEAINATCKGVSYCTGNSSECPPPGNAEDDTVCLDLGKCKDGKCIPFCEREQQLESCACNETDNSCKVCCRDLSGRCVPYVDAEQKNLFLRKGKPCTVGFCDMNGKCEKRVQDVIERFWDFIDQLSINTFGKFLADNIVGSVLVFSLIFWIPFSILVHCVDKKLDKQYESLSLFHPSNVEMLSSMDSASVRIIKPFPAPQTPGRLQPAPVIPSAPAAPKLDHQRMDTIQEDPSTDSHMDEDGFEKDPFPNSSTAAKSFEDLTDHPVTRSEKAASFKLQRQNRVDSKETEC

| SMILES | IC50 [1] [nM] | IC50 [3] [nM] | IC50 [4] [nM] | inhibition at 3 µM [2] [%] | also measured |
| --- | --- | --- | --- | --- | --- |
| CC#CCOc1ccc(S(=O)(=O)C2(C(=O)NO)CCN(Cc3ccc(Cl)c(Cl)c3)CC2)cc1 (as salt: HCl) [Example 10, 4-(4-But-2-ynyloxy-benzenesulfonyl)-1-(3,4-dichloro-benzyl)-piperidine-4-carboxylic acid hydroxyamide] | – | – | – | – | melting point: 213 °C |
| CCCCCC#CCOc1ccc(S(=O)(=O)C2(C(=O)NO)CCN(Cc3ccc(Br)cc3)CC2)cc1 (as salt: hydrochloride) [Example 6, 1-(4-Bromo-benzyl)-4-(4-oct-2-ynyloxy-benzenesulfonyl)-piperdine-4-carboxylic acid hydroxyamide] | – | – | – | – | melting point: 140 °C |
| O=C(NO)C1(S(=O)(=O)c2ccc(OCC#CCN3CCOCC3)cc2)CCN(Cc2ccc(Br)cc2)CC1 [Example 13, 1-(4-Bromo-benzyl)-4-[4-(4-morpholin-4-yl-but-2-ynyloxy)-benzenesulfonyl]-piperdine-4-carboxylic acid hydroxyamide] | 882 | 2000 | 800 | 69 | – |
| CC#CCOc1ccc(SC2(C(=O)NO)CCNCC2)cc1 [Example 15, 4-(4-But-2-ynyloxy-phenylsulfanyl)-piperidine-4-carboxylic acid hydroxyamide] | – | – | – | – | inhibition at 1 µM [1]: 38%; MMP1 % inhibition ([5]; printed in the MMP1 IC50 column, concentration not given): 24%; MMP9 % inhibition ([3]; printed in the MMP9 IC50 column, concentration not given): 25%; MMP13 % inhibition ([4]; MMP13 IC50, concentration not given): 24% |
| CC#CCOc1ccc(S(=O)(=O)CC2(C(=O)NO)CCN(CC#CC)CC2)cc1 [Example 37, 1-(2-Butynyl)-4-({[4-(2-butynyloxy)phenyl]sulfonyl}methyl)-N-hydroxy-4-piperidinecarboxamide hydrochloride] | 18 | 8580 | 1020 | – | IC50 [5]: 8600 nM |
| CC#CCOc1ccc(S(=O)(=O)CC2(C(=O)NO)CCN(C(=O)OC)CC2)cc1 [Example 39, Methyl 4-({[4-(2-butynyloxy)phenyl]sulfonyl}methyl)-4-[(hydroxyamino)-carbonyl]-1-piperidinecarboxylate] | 11 | 4280 | 809 | – | IC50 [5]: 3770 nM |

Now from value to molecule, other results behind:

| IC50 [1] [nM] | IC50 [3] [nM] | IC50 [4] [nM] | SMILES | inhibition at 3 µM [2] [%] | also measured |
| --- | --- | --- | --- | --- | --- |
| 139 | 2300 | 946 | CC#CCOc1ccc(SCC2(C(=O)NO)CCOCC2)cc1 [Example 17, 4-(4-But-2-ynyloxy-phenylsulfanylmethyl)-tetrahydro-pyran-4-carboxylic acid hydroxyamide] | 0 | – |
| 11.4 | 1280 | 98 | CC#CCOc1ccc(S(=O)(=O)CC2(C(=O)NO)CCOCC2)cc1 [Example 18, 4-(4-But-2-ynyloxy-benzenesulfonylmethyl)-tetrahydro-pyran-4-carboxylic acid hydroxyamide] | 45 | – |
| 74 | – | 1320 | CC#CCOc1ccc([S+]([O-])CC2(C(=O)NO)CCOCC2)cc1 (centres unmarked) [Example 19, 4-(4-But-2-ynyloxy-benzenesulfinylmethyl)-tetrahydro-pyran-4-carboxylic acid hydroxyamide] | 4 | – |
